Source: patent US20080200442A1, “Compositions and Methods for Treating, Reducing, Ameliorating, or Preventing Infections of the Ear or Upper Respiratory Tract” (priority 2007, published 2008)
Converted amounts (≈) assume the structure as drawn.

tested on: Ofloxacin-resistant Enterobacteriaceae; assay: organism not typed; type: cell-based

**Q.** For `NC1CCCCN(c2c(F)cc3c(=O)c(C(=O)O)cn(C4CC4)c3c2Cl)C1` (stereo not drawn) [Compound Having Formula III], which MIC90 is on record?
**A.** 16 µg/mL

**Q.** How did the MIC90 turn out when `CCn1cc(C(=O)O)c(=O)c2cc(F)c(N3CCNCC3)cc21` [Norfloxacin] was run?
**A.** 128 µg/mL (≈ 401 µM)

**Q.** For `CC1COc2c(N3CCN(C)CC3)c(F)cc3c(=O)c(C(=O)O)cn1c23` (stereo not drawn) [Ofloxacin], which MIC90 is on record?
**A.** 64 µg/mL (≈ 177 µM)
